Patent US9314020B2, “Microbicidal composition” (Dow Global Technologies LLC, priority 2012, dated 2016)

What was measured:
[1] = system: Pseudomonas aeruginosa ATCC 10145, Aeromonas hydrophila ATCC 7965, and Myroides odoratus (Flavobacterium odoratum) NCIMB 13294; assay: Efficacy against aerobic bacteria in synthetic cooling water (4 h kill, TSB/Resazurin readout); format: cell-based; conditions: for Concentration (ppm a.i.) for complete bacterial kill in 4 hours: DBMAL: DBMAL alone or DBMAL part of DTEA/DBMAL blend; for Concentration (ppm a.i.) for complete bacterial kill in 4 hours: DBNPA: DBNPA alone or DBNPA part of DTEA/DBNPA blend
Experimental: (§1) The synergism of the biocides combination of the present invention was determined using the method described by Kull, F. C, et. al. in Applied Microbiology 9:538-541 (1961).
(§2) The formula to calculate the synergistic index (SI) is Qa/QA+Qb/QB=SI where
(§3) QA=concentration of compound A in ppm, acting alone produced an end point or if end point could not be established, the highest concentration tested will be used as the end point for the calculation and the SI will be recorded in “less than or <” values
(§4) Qa=concentration of compound A in ppm, in the mixture, which produced an end point
(§5) QB=concentration of compound B in ppm, acting alone produced an end point or if end point could not be established, the highest concentration tested will be used as the end point for the calculation and the SI will be recorded in “less than or <” values
Synthetic cooling water was generated as disclosed in Appendix A and dispensed into three 96-well plates. A stock solution of DBMAL from 12% liquid active (or DBNPA from a solid formulation as appropriate) and a stock solution of DTEA (in the hydrochloride form) derived from a liquid stock stored under anaerobic conditions were generated in the synthetic cooling water. In one 96-well biocide block, the stock solution of DBMAL (or DBNPA as listed) was added to the first row of the master block and diluted 1:1 by row until the testing range has been prepared. In a second 96-well biocide block, the stock solution of DTEA was added to the first column of the master block and diluted 1:1 by column until the testing range has been prepared. Biocides from each DBMAL row in the DBMAL biocide master block were added to the matching experimental row in a 3rd 96 well plate filled with synthetic cooling water. This was repeated, adding biocides from each DTEA column from the DTEA biocide master block to the matching experimental column Working quickly, the following organisms were added from a cell-suspension with an OD600 of ˜0.4 (approximately 1×10^8 cfu/ml) to final concentration of 1×10^7 cfu/ml in the first of the 96 well plates: Pseudomonas aeruginosa ATCC 10145, Aeromonas hydrophila ATCC 7965, and Myroides odoratus (Flavobacterium odoratum) NCIMB 13294. The resulting bacterial final concentration was 3×10^7 cfu/ml in the experimental 96 well block.
The experimental block was placed at 35° C., with the time of exposure started once the last well had been inoculated. At 4 hours, the experimental block was removed from the incubator, and 20 μl of treated cells from each row of the experimental block and were added to the first row of a 96-well plate pre-filled with TSB/Resazurin dye. Each sample from the first row of the TSB/Resazurin dye plate was diluted 1:10 six times by serial dilution moving down the plate by row. The inoculated TSB/Resazurin dye 96-well plate was placed at 35° C. for 24 hours, following that time data interpretation occurred. Color change from purple to pink indicates microbial metabolic activity and designates lack of cell death. Those wells were counted as “growth”. Failure to have color change from purple to pink indicates a lack of microbial metabolic activity and designates cell death. These were counted as “no growth”. […] The efficacy and synergy index of each combo were also included.
(§6) In order to differentiate DBMAL/DTEA combinations from DTEA/DBNPA combinations, DTEA/DBNPA combinations were also tested using the same test procedures and conditions described above.

[2] = system: Desulfovibrio longus ATCC 51456; assay: Biocidal efficacy against anaerobic bacteria (2 h kill in deoxygenated salt solution); format: cell-based
Experimental: as §1, §2, §3, §4, §5
Inside an anaerobic chamber (BACTRON anaerobic chamber), a deoxygenated sterile salt solution (3.1183 g of NaCl, 1.3082 mg of NaHCO3, 47.70 mg of KCl, 72.00 mg of CaCl2, 54.49 mg of MgSO4, 172.28 mg of Na2SO4, 43.92 mg of Na2CO3 in 1 L water) was inoculated with Desulfovibrio longus ATCC 51456, a sulfate-reducing bacterium, to a final bacterial concentration of 10^7 to 10^8 CFU/mL. Aliquots of this cell suspension were then treated with DBMAL, DTEA (in the hydrochloride form), and DBMAL/DTEA blends, at selected active concentrations. After the treated cell suspensions were incubated at 35° C. for 2 hours, the biocidal efficacy was determined by minimum tested biocide concentration for 99.999% bacteria kill in the aliquots. Table 1 summarizes the efficacy of each biocide and their blends, and the Synergy Index (SI) of each combination.
as §6

## NC(=O)C(Br)(Br)C(N)=O [DBMAL alone, 2,2-dibromomalonamide]
[1]; experiment 1
  Concentration (ppm a.i.) for complete bacterial kill in 4 hours: DBMAL: 25.00 ppm a.i.
[1]; experiment 2
  Concentration (ppm a.i.) for complete bacterial kill in 4 hours: DBMAL: 25.00 ppm a.i.
[1]; experiment 3
  Concentration (ppm a.i.) for complete bacterial kill in 4 hours: DBMAL: 25.00 ppm a.i.
[1]; experiment 4
  Concentration (ppm a.i.) for complete bacterial kill in 4 hours: DBMAL: 50.00 ppm a.i.
[1]; DTEA/DBMAL blends, experiment 3
  Synergy Index: 1.00
[2]; DBMAL alone or DBMAL part of DTEA/DBMAL blend, 35° C., 2 hours, Table 1
  Concentration (ppm a.i.) for more than 99.999% bacterial kill in 2 hours: DBMAL: 100.00 ppm a.i.

## N#CC(Br)(Br)C(N)=O [DBNPA alone]
[1]; experiment 5
  Concentration (ppm a.i.) for complete bacterial kill in 4 hours: DBNPA: 6.25 ppm a.i.
[1]; experiment 6
  Concentration (ppm a.i.) for complete bacterial kill in 4 hours: DBNPA: 6.25 ppm a.i.
[1]; experiment 7
  Concentration (ppm a.i.) for complete bacterial kill in 4 hours: DBNPA: 6.25 ppm a.i.
[2]; DBNPA alone or DBNPA part of DTEA/DBNPA blend, Table 6
  Concentration (ppm a.i.) for more than 99.999% bacterial kill in 2 hours: DBNPA: 25.00 ppm a.i.

## CCCCCCCCCCSCCN.Cl [DTEA alone, 2-(decylthio)ethanamine hydrochloride]
[1]; DTEA alone or DTEA part of DTEA/DBMAL blend, experiment 1
  Concentration (ppm a.i.) for complete bacterial kill in 4 hours: DTEA: 12.50 ppm a.i.
[1]; DTEA alone or DTEA part of DTEA/DBMAL blend, experiment 2
  Concentration (ppm a.i.) for complete bacterial kill in 4 hours: DTEA: 25.00 ppm a.i.
[1]; DTEA alone or DTEA part of DTEA/DBMAL blend, experiment 3
  Concentration (ppm a.i.) for complete bacterial kill in 4 hours: DTEA: 25.00 ppm a.i.
[1]; DTEA alone or DTEA part of DTEA/DBMAL blend, experiment 4
  Concentration (ppm a.i.) for complete bacterial kill in 4 hours: DTEA: 100.00 ppm a.i.
[1]; DTEA alone or DTEA part of DTEA/DBNPA blend, experiment 5
  Concentration (ppm a.i.) for complete bacterial kill in 4 hours: DTEA: 50.00 ppm a.i.
[1]; DTEA alone or DTEA part of DTEA/DBNPA blend, experiment 6
  Concentration (ppm a.i.) for complete bacterial kill in 4 hours: DTEA: 100.00 ppm a.i.
[1]; DTEA alone or DTEA part of DTEA/DBNPA blend, experiment 7
  Concentration (ppm a.i.) for complete bacterial kill in 4 hours: DTEA: 50.00 ppm a.i.
[2]; DTEA alone or DTEA part of DTEA/DBMAL blend, 35° C., 2 hours, Table 1
  Concentration (ppm a.i.) for more than 99.999% bacterial kill in 2 hours: DTEA: 25.00 ppm a.i.
[2]; DTEA alone or DTEA part of DTEA/DBNPA blend, Table 6
  Concentration (ppm a.i.) for more than 99.999% bacterial kill in 2 hours: DTEA: 25.00 ppm a.i.
